Reference: patent US11028052B2, “Compounds useful as modulators of TRPM8” (Firmenich Incorporated, priority 2013, dated 2021)
≈ marks a conversion by molar mass, not a printed value.

Experiments:
hTRPM8 = target: T1, hTRPM8 (Homo sapiens, UniProt Q7Z2W7); test: hTRPM8 cell based agonist assay (section 1.1); details: mammalian cell line stably expressing TRPM8
T1 construct: expressed in transfected cells
From the text: The present compounds are useful as modulators of TRPM8. The activity of TRPM8 can be readily monitored in cell based assays using fluorescent calcium-sensitive dyes, membrane potential dyes, or sodium-sensitive dyes. The activity of TRPM8 can also be monitored with electrophysiological set-ups, such as patch-clamping and two-electrode voltage clamping. A mammalian cell line derivative which stably expresses TRPM8 was used in biological assays in association with testing the present compounds with cool-tasting or -feeling properties (Servant et al. US 2007/0259354 A1 and references cited therein). Typical compound concentrations tested were 100 μM, 50 μM, 10 μM, 1 μM, and 0.5 μM. The present compounds have shown strong activity as agonists of hTRPM8. Assay results for compounds are illustrated in Table 1 below. Specifically, the Compounds listed in Table 1.1, e.g., Compounds 1.A1 to Compounds 1.A9 are the specific compounds as described herein. For example, Compounds 1.A1 is Example 1.1.

Solubility in LSB = assay type: physicochemical; details: Low Sodium Buffer (LSB), aqueous buffer
panelists = test: Sensory study, cooling line scale vs WS-3 (section 1.2); assay type: in vivo, human
Protocol: Three typical sensory studies are described below each followed by a table summarizing sensory results of selected compounds of the invention (Tables 1.2 to 1.4).
All samples made with Low Sodium Buffer (LSB) pH ˜7.1 and contain 0.1% ethanol.
Compounds are rated on a 15 point line scale where 45 μM WS-3 (N-Ethyl-p-menthane-3-carboxamide) is ranked as a 5 in cool intensity. In most cases our compounds are tested to determine at what concentration the cooling intensity is equivalent to 45 μM WS-3. In each test, the panelist is presented with a 0 μM control sample, a 45 μM WS-3 control sample and the experimental compound sample and asked to rate the cooling intensity of each sample. Panelists are also asked to rate bitterness. In the table below there was no significant bitterness detected unless otherwise noted. Also, in the table below, n represents the number of tests completed for a given experiment (#panelists×#repetitions).

T1 sequence (Q7Z2W7 whole entry): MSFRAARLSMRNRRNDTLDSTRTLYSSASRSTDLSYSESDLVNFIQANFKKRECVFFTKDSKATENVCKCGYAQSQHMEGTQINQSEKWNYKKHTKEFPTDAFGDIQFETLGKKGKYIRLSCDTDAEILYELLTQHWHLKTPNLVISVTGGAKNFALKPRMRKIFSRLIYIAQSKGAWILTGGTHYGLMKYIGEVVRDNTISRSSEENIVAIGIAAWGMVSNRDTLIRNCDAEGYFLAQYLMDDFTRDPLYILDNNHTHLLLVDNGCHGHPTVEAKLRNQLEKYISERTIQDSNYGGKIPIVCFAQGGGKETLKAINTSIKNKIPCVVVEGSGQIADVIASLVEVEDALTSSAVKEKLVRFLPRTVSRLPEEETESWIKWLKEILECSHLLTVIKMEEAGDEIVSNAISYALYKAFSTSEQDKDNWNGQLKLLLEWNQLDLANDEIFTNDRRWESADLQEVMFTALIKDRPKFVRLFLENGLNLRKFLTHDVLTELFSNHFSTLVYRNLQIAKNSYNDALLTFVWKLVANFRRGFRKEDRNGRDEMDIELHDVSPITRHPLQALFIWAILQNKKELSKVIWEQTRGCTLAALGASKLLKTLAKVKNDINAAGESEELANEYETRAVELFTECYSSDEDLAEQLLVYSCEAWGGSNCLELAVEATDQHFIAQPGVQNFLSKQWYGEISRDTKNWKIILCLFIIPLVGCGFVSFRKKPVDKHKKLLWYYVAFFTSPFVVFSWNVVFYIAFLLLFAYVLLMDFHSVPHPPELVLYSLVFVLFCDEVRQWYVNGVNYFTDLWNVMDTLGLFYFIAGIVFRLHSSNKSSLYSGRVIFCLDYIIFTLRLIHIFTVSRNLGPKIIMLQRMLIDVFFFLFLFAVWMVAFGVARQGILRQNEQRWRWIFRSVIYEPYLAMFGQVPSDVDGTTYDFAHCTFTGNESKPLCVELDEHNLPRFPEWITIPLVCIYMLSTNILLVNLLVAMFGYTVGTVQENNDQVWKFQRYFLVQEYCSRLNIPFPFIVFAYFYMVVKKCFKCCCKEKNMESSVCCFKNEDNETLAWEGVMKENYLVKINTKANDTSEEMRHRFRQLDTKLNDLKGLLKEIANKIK

Compound: CC1=NN(CC(=O)c2ccccc2)C(=O)C1(C)C1CCCCC1 (centres unmarked) [Example 1.1, 4-cyclohexyl-3,4-dimethyl-1-(2-oxo-2-phenylethyl)-1H-pyrazol-5(4H)-one]
- EC50 (hTRPM8): 0.034 µM
- hTRPM8 EC50 Ratio (hTRPM8): 100.0
- solubility (Solubility in LSB): 337 µM (≈ 105 µg/mL)
- Average Cooling (panelists; Table 1.2, 5 μM, 15 point line scale, n = 30): 4.7
- Sensory Results (panelists; compound concentration compared in cooling intensity with 45 uM WS-3, LSB pH ~7.1, 0.1% ethanol): 5 uM~45 uM WS-3
